Laboratory results taken from ChEMBL document CHEMBL1136048, “2a-[4-(Tetrahydropyridoindol-2-yl)butyl]tetrahydrobenzindole derivatives: new selective antagonists of the 5-hydroxytryptamine7 receptor” (J Med Chem, 2002).

What was measured:
[1] = molecular target: Serotonin 2 (5-HT2) receptor (Rattus norvegicus, UniProt P30994+P08909+P14842); assay: In vitro binding affinity to 5-hydroxytryptamine 2 receptor of rat cerebral cortex membranes using [3H]ketanserin as the radioligand; assay type: tissue-based, Membrane
[2] = molecular target: 5-hydroxytryptamine receptor 7 (Homo sapiens, UniProt P34969); assay: Binding affinity to human recombinant 5-hydroxytryptamine 7 receptor in mammalian cells using [3H]5-CT as radioligand; assay type: cell-based
5-hydroxytryptamine receptor 7, sequence (P34969 whole entry): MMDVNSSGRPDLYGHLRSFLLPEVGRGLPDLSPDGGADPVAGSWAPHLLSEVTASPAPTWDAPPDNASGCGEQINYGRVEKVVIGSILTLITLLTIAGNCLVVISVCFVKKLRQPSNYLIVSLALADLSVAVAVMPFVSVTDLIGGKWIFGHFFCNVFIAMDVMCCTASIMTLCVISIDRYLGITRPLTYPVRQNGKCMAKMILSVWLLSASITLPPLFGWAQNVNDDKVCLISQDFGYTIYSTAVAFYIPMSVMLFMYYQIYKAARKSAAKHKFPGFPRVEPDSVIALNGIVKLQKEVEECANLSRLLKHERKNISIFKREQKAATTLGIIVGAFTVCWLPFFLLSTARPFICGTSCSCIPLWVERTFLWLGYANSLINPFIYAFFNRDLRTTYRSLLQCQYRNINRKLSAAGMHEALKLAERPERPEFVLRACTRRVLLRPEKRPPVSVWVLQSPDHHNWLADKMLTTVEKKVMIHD

[3] = molecular target: T1, 5-hydroxytryptamine receptor 1A (Homo sapiens, UniProt P08908); assay: In vitro binding affinity at human recombinant 5-hydroxytryptamine 1A receptor in mammalian cells using 3[H]8-OH-DPAT as the radioligand; assay type: cell-based
T1 sequence (P08908 whole entry): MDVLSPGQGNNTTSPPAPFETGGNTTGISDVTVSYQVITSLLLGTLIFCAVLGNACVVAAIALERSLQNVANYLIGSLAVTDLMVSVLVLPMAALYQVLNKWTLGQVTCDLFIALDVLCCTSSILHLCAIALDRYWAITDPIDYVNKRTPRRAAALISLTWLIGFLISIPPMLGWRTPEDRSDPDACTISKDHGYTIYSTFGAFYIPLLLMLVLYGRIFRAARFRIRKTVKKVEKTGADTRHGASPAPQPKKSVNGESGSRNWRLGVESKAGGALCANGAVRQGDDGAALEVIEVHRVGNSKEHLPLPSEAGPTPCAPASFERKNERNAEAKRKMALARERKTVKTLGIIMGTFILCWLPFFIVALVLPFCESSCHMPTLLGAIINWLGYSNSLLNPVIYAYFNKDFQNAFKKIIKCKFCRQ

[4] = molecular target: 5-hydroxytryptamine receptor 1B (Rattus norvegicus, UniProt P28564); assay: In vitro binding affinity at 5-hydroxytryptamine 1B receptor in rat striatal […] using [125I](-)-iodocyanopindolol as the radioligand
5-hydroxytryptamine receptor 1B, sequence (P28564 whole entry): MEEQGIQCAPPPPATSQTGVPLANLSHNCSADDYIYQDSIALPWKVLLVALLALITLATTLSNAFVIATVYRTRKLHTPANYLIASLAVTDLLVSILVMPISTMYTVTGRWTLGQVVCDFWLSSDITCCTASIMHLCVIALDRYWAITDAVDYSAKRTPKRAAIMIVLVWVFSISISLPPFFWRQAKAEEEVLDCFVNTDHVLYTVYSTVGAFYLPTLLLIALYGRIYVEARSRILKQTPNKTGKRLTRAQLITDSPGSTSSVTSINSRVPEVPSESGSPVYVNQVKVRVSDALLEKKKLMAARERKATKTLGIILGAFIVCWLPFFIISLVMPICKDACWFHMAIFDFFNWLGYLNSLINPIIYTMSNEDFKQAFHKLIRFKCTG

[5] = molecular target: T2, Serotonin 3 receptor (5HT3) (Mus musculus, UniProt Q9JHJ5+P23979); assay: In vitro binding affinity at 5-hydroxytryptamine 3 receptor in N1E-115 cells using 3[H]GR-65630 as the radioligand; assay type: cell-based
T2 sequence (Q9JHJ5 whole entry): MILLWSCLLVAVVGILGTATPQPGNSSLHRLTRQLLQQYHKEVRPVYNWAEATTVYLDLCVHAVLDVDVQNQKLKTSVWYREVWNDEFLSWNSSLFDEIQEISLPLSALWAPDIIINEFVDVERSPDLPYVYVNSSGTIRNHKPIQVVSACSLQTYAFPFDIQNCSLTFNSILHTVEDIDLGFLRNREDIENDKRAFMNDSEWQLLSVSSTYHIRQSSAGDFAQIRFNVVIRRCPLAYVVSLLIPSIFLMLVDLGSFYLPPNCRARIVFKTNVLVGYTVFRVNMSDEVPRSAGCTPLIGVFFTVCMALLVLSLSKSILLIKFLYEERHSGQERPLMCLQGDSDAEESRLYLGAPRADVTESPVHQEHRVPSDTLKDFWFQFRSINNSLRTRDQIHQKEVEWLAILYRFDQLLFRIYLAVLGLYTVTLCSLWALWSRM
T2 sequence (P23979 whole entry): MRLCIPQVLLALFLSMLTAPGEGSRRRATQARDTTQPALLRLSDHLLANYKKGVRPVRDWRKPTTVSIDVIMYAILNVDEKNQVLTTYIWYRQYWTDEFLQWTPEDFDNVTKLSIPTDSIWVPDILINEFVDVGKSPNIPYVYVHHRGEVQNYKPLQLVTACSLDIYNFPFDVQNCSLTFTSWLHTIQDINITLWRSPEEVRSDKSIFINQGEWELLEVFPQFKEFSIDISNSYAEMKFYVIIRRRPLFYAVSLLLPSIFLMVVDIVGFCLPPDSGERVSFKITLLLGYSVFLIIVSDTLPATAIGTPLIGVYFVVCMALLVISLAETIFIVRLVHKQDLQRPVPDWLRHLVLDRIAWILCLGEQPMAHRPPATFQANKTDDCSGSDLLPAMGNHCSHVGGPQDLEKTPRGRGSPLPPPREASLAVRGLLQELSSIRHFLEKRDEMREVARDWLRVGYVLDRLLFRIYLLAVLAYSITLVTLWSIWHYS

[6] = molecular target: 5-hydroxytryptamine receptor 4 (Cavia porcellus, UniProt O70528); assay: In vitro binding affinity at 5-hydroxytryptamine 4 receptor in guinea pig striatum using 3[H]GR-113808 as the radioligand; assay type: tissue-based
5-hydroxytryptamine receptor 4, sequence (O70528 whole entry): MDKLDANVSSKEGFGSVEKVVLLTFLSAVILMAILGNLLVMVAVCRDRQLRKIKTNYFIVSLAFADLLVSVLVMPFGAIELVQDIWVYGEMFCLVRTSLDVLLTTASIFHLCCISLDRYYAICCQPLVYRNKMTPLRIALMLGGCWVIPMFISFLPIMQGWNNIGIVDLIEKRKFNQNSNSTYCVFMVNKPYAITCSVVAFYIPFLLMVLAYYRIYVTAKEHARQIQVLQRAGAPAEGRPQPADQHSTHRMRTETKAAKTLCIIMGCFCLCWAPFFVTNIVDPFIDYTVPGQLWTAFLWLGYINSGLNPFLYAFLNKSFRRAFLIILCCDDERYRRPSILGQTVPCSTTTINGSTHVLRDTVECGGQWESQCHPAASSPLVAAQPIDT

[7] = molecular target: 5-hydroxytryptamine receptor 6 (Homo sapiens, UniProt P50406); assay: In vitro binding affinity at human recombinant 5-hydroxytryptamine 6 receptor in mammalian cells using 3[H]LSD as the radioligand; assay type: cell-based
5-hydroxytryptamine receptor 6, sequence (P50406 whole entry): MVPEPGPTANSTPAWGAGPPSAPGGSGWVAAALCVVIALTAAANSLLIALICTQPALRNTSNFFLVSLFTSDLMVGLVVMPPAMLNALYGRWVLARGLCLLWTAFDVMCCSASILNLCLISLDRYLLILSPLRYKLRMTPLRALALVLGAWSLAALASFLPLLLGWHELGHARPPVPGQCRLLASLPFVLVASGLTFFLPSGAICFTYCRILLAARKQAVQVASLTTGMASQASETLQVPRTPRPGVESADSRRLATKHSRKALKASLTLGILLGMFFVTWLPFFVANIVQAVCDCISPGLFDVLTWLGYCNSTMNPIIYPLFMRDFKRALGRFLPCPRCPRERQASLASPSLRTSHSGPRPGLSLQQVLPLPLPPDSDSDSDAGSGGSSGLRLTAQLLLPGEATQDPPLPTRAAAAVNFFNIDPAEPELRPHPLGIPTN

SMILES | Log Ki [1] | Ki [2] | further results
O=C1Nc2cccc3c2C1(CCCCN1CCC(c2ccccc2)CC1)CCC3 (stereo not drawn) | -6.84 | 3.98 nM | –
NCCc1c[nH]c2ccc(C(N)=O)cc12 | < -6 | – | –
O=C1Nc2cccc3c2C1(CCCCN1CCN(C2CCCCC2)CC1)CCC3 (stereo not drawn) | < -6 | – | –
O=C1Nc2cccc3c2C1(CCCCN1CCC(O)(c2ccccc2)CC1)CCC3 (stereo not drawn) | -6.35 | 43.7 nM | –
Cc1cccc(C)c1N1CCN(CCCCC23CCCc4cccc(c42)NC3=O)CC1 (stereo not drawn) | -5.85 | 148 nM | –
C=CCn1c2c(c3ccccc31)CCN(CCCCC13CCCc4cccc(c41)NC3=O)C2 (stereo not drawn) | -6.55 | 6.03 nM | –
CC(=O)c1ccccc1N1CCN(CCCCC23CCCc4cccc(c42)NC3=O)CC1 (stereo not drawn) | -6.45 | 7.94 nM | –
Cc1ccccc1N1CCN(CCCCC23CCCc4cccc(c42)NC3=O)CC1 (stereo not drawn) | -7.35 | 10.5 nM | –
Cc1ccc(C2=CCN(CCCCC34CCCc5cccc(c53)NC4=O)CC2)cc1 (stereo not drawn) | -6.94 | 4.79 nM | –
Cn1c2c(c3ccccc31)CCN(CCCCC13CCCc4cccc(c41)NC3=O)C2 (stereo not drawn) | -6.28 | 19.1 nM | –
O=C1Nc2cccc3c2C1(CCCCN1CCN(c2ccccc2Cl)CC1)CCC3 (stereo not drawn) | -7.01 | 12.3 nM | –
COC1(c2ccccc2)CCN(CCCCC23CCCc4cccc(c42)NC3=O)CC1 (stereo not drawn) | -6.43 | 21.9 nM | –
CC(=O)C1(c2ccccc2)CCN(CCCCC23CCCc4cccc(c42)NC3=O)CC1 (stereo not drawn) | -7.01 | 72.4 nM | –
COc1ccc2[nH]c3c(c2c1)CCN(CCCCC12CCCc4cccc(c41)NC2=O)C3 (stereo not drawn) | -6.17 | 29.5 nM | –
O=C1Nc2cccc3c2C1(CCCCN1CC=C(c2ccc(F)cc2)CC1)CCC3 (stereo not drawn) | -7.1 | 3.55 nM | –
O=C1Nc2ccc(O)c3c2C1(CCCCN1CC=C(c2ccccc2)CC1)CCC3 (stereo not drawn) | -7.4 | 8.13 nM | –
CNC(=O)Cn1c2c(c3ccccc31)CCN(CCCCC13CCCc4cccc(c41)NC3=O)C2 (stereo not drawn) | < -6 | 3.55 nM | Ki [3]: 129 nM; Ki [4]: > 1000 nM; Log Ki [5]: > -6; Ki [6]: 490 nM; Ki [7]: > 1000 nM
NC(=O)C1(c2ccccc2)CCN(CCCCC23CCCc4cccc(c42)NC3=O)CC1 (stereo not drawn) | -7.8 | 224 nM | –

SMILES | Log Ki [1] | Ki [2] | further results
O=C1Nc2cccc3c2C1(CCCCN1CCN(c2ccccc2[N+](=O)[O-])CC1)CCC3 (stereo not drawn) | -7.34 | 24 nM | –
O=C1Nc2cccc3c2C1(CCCCN1CCN(c2ccccc2C(F)(F)F)CC1)CCC3 (stereo not drawn) | -5.86 | 74.1 nM | –
COc1ccc2c3c1CCCC3(CCCCN1CC=C(c3ccccc3)CC1)C(=O)N2 (stereo not drawn) | -7.55 | 110 nM | –
NC(=O)c1ccc2c3c1CCCC3(CCCCN1CC=C(c3ccccc3)CC1)C(=O)N2 (stereo not drawn) | -6.8 | 417 nM | –
CN1C(=O)C2(CCCCN3CC=C(c4ccccc4)CC3)CCCc3cccc1c32 (stereo not drawn) | -6.88 | 25.1 nM | –
NC(=O)c1ccccc1N1CCN(CCCCC23CCCc4cccc(c42)NC3=O)CC1 (stereo not drawn) | -6.05 | 17.4 nM | –
NC(=O)Cn1c2c(c3ccccc31)CCN(CCCCC13CCCc4cccc(c41)NC3=O)C2 (stereo not drawn) | -6.09 | 8.71 nM | –
O=C1Nc2ccc(Br)c3c2C1(CCCCN1CC=C(c2ccccc2)CC1)CCC3 (stereo not drawn) | -6.54 | 12.3 nM | –
CC(=O)c1ccc2c3c1CCCC3(CCCCN1CC=C(c3ccccc3)CC1)C(=O)N2 (stereo not drawn) | -7.12 | 97.7 nM | –
CN(C)C(=O)Cn1c2c(c3ccccc31)CCN(CCCCC13CCCc4cccc(c41)NC3=O)C2 (stereo not drawn) | < -6 | 19.1 nM | –
COCn1c2c(c3ccccc31)CCN(CCCCC13CCCc4cccc(c41)NC3=O)C2 (stereo not drawn) | -6.24 | 17 nM | –
CC(=O)n1c2c(c3ccccc31)CCN(CCCCC13CCCc4cccc(c41)NC3=O)C2 (stereo not drawn) | -6.27 | 6.46 nM | –
O=C1Nc2cccc3c2C1(CCCCN1CCc2c([nH]c4ccccc24)C1)CCC3 (stereo not drawn) | -6.62 | 5.75 nM | –
COc1ccc(N2CCN(CCCCC34CCCc5cccc(c53)NC4=O)CC2)cc1 (stereo not drawn) | -6.69 | 20.4 nM | –
COc1cccc(N2CCN(CCCCC34CCCc5cccc(c53)NC4=O)CC2)c1 (stereo not drawn) | -7.19 | 2.34 nM | –
CN(C)C(=O)n1c2c(c3ccccc31)CCN(CCCCC13CCCc4cccc(c41)NC3=O)C2 (stereo not drawn) | -6.12 | 7.08 nM | –
O=C1Nc2cccc3c2C1(CCCCN1CCN(c2ncccn2)CC1)CCC3 (stereo not drawn) | -6.91 | 45.7 nM | –
